Structures are written as SMILES.

For this assay, the target named is KRas (Homo sapiens, UniProt P01116, G12C). Description: KRas degradation in SW1573 cells by Western blot, normalized to GAPDH (data of Table 14). The settings on record: SW1573 cells. The assay is classed as cell-based. The procedure, abridged:
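SW1573 cells, homozygous for the KRas G12C mutation and maintained in DMEM with 10% FBS and 1% penicillin-streptomycin, were seeded in 12-well plates, allowed to attach overnight at 37° C. under 5% CO2, then serum-starved for 24 hours before compound exposure. KRas levels were measured by Western blot, normalized to GAPDH, and compared with DMSO controls to give percent degradation, DC50 and Dmax.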
(In general: A western blot detects proteins with antibodies after separation by electrophoresis.)

For the compound `C=CC(=O)N1CCN(c2nc(O[C@H](C)CN3CCC(OCCOCCOCCOCCOc4ccc5c(c4)C(=O)N(C4CCC(=O)NC4=O)C5=O)CC3)nc3c(F)c(-c4cc(O)cc5ccccc45)c(Cl)cc23)CC1` (stereo partly drawn) [compound 429], the “Percent Degradation at Indicated Concentration (μM)” value (“Percent Degradation” below) reads like this: (0.1 μM) “C (Percent Degradation: C ≤ 35)”; (0.3 μM) “C (Percent Degradation: C ≤ 35)”; (1 μM) “C (Percent Degradation: C ≤ 35)”.
In the case of `C=CC(=O)N1CCN(c2nc(O[C@H](C)CN3CCC(OCCOCCOCCOCCOCCOc4ccc5c(c4)C(=O)N(C4CCC(=O)NC4=O)C5=O)CC3)nc3c(F)c(-c4cc(O)cc5ccccc45)c(Cl)cc23)CC1` (stereo partly drawn) [compound 430, 5-((14-((1-((2R)-2-((4-(4-acryloylpiperazin-1-yl)-6-chloro-8-fluoro-7-(3-hydroxynaphthalen-1-yl)quinazolin-2-yl)oxy)propyl)piperidin-4-yl)oxy)-3,6,9,12-tetraoxatetradecyl)oxy)-2-(2,6-dioxopiperidin-3-yl)isoindoline-1,3-dione], the “Percent Degradation” value by setting is: (0.1 μM) “C (Percent Degradation: C ≤ 35)”; (0.3 μM) “C (Percent Degradation: C ≤ 35)”; (1 μM) “C (Percent Degradation: C ≤ 35)”.
Turning to `C=CC(=O)N1CCN(c2nc(O[C@H](C)CN3CCC(CN4CCN(c5ccc6c(c5)C(=O)N(C5CCC(=O)NC5=O)C6=O)CC4)CC3)nc3c(F)c(-c4cc(O)cc5ccccc45)c(Cl)cc23)CC1` (stereo partly drawn) [compound 431, 5-(4-((1-((2R)-2-((4-(4-acryloylpiperazin-1-yl)-6-chloro-8-fluoro-7-(3-hydroxynaphthalen-1-yl)quinazolin-2-yl)oxy)propyl)piperidin-4-yl)methyl)piperazin-1-yl)-2-(2,6-dioxopiperidin-3-yl)isoindoline-1,3-dione], the “Percent Degradation” value is on record as “C (Percent Degradation: C ≤ 35)” (0.1 μM), “C (Percent Degradation: C ≤ 35)” (0.3 μM) and “C (Percent Degradation: C ≤ 35)” (1 μM).
In the case of `C=CC(=O)N1CCN(c2nc(O[C@H](C)CN3CCC(OCCOc4cc(-c5scnc5C)ccc4CNC(=O)[C@@H]4C[C@@H](O)CN4C(=O)[C@@H](c4cc(C)no4)C(C)C)CC3)nc3c2CCN(c2cc(O)cc4ccccc24)C3)CC1` [compound 436, (2S,4R)-N-(2-(2-((1-((R)-2-((4-(4-acryloylpiperazin-1-yl)-7-(3-hydroxynaphthalen-1-yl)-5,6,7,8-tetrahydropyrido[3,4-d]pyrimidin-2-yl)oxy)propyl)piperidin-4-yl)oxy)ethoxy)-4-(4-methylthiazol-5-yl)benzyl)-4-hydroxy-1-((R)-3-methyl-2-(3-methylisoxazol-5-yl)butanoyl)pyrrolidine-2-carboxamide], the “Percent Degradation” value runs as follows: (0.1 μM) “C (Percent Degradation: C ≤ 35)”; (0.3 μM) “B (35 < B < 70)”; (1 μM) “B (35 < B < 70)”.
As for `C=CC(=O)N1CCN(c2nc(O[C@H](C)CN3CCC(OCCOc4cc(-c5scnc5C)ccc4CNC(=O)[C@@H]4C[C@@H](O)CN4C(=O)[C@H](c4cc(C)no4)C(C)C)CC3)nc3c2CCN(c2cc(O)cc4ccccc24)C3)CC1` [compound 437, (2S,4R)-N-(2-(2-((14(R)-2-((4-(4-acryloylpiperazin-1-yl)-7-(3-hydroxynaphthalen-1-yl)-5,6,7,8-tetrahydropyrido[3,4-d1pyrimidin-2-yl)oxy)propyl)piperidin-4-yl)oxy)ethoxy)-4-(4-methylthiazo1-5-yl)benzyl)-4-hydroxy-1-((S)-3-methyl-2-(3-methylisoxazol-5-yl)butanoyl)pyrrolidine-2-carboxamide], the “Percent Degradation” value is, setting by setting: (0.1 μM) “C (Percent Degradation: C ≤ 35)”; (0.3 μM) “C (Percent Degradation: C ≤ 35)”; (1 μM) “C (Percent Degradation: C ≤ 35)”.
`C=CC(=O)N1CCN(c2nc(O[C@H](C)CN3CCC(OCCOCCOc4cc(-c5scnc5C)ccc4CNC(=O)[C@@H]4C[C@@H](O)CN4C(=O)[C@@H](c4cc(C)no4)C(C)C)CC3)nc3c2CCN(c2cc(O)cc4ccccc24)C3)CC1` [compound 438]: the “Percent Degradation” value is, setting by setting: (0.1 μM) “B (35 < B < 70)”; (0.3 μM) “C (Percent Degradation: C ≤ 35)”; (1 μM) “B (35 < B < 70)”.
Take `C=CC(=O)N1CCN(c2nc(O[C@H](C)CN3CCC(OCCOCCOc4cc(-c5scnc5C)ccc4CNC(=O)[C@@H]4C[C@@H](O)CN4C(=O)[C@H](c4cc(C)no4)C(C)C)CC3)nc3c2CCN(c2cc(O)cc4ccccc24)C3)CC1` [compound 439, (2S,4R)-N-(2-(2-(2-((1-((R)-2-((4-(4-acryloylpiperazin-1-yl)-7-(3-hydroxynaphthalen-1-yl)-5,6,7,8-tetrahydropyrido[3,4-d]pyrimidin-2-yl)oxy)propyl)piperidin-4-yl)oxy)ethoxy)ethoxy)-4-(4-methylthiazol-5-yl)benzyl)-4-hydroxy-1-((S)-3-methyl-2-(3-methylisoxazol-5-yl)butanoyl)pyrrolidine-2-carboxamide]: the “Percent Degradation” value runs as follows: (0.1 μM) “C (Percent Degradation: C ≤ 35)”; (0.3 μM) “C (Percent Degradation: C ≤ 35)”; (1 μM) “C (Percent Degradation: C ≤ 35)”.
For the compound `C=CC(=O)N1CCN(c2nc(O[C@H](C)CN3CCC(OCCOCCOCCOc4cc(-c5scnc5C)ccc4CNC(=O)[C@@H]4C[C@@H](O)CN4C(=O)[C@@H](c4cc(C)no4)C(C)C)CC3)nc3c2CCN(c2cc(O)cc4ccccc24)C3)CC1` [compound 440, (2S,4R)-N-(2-(2-(2-(2-((1-((R)-2-((4-(4-acryloylpiperazin-1-yl)-7-(3-hydroxynaphthalen-1-yl)-5,6,7,8-tetrahydropyrido[3,4-d]pyrimidin-2-yl)oxy)propyl)piperidin-4-yl)oxy)ethoxy)ethoxy)ethoxy)-4-(4-methylthiazol-5-yl)benzyl)-4-hydroxy-1-((R)-3-methyl-2-(3-methylisoxazol-5-yl)butanoyl)pyrrolidine-2-carboxamide], the “Percent Degradation” value was “C (Percent Degradation: C ≤ 35)” (0.1 μM), “C (Percent Degradation: C ≤ 35)” (0.3 μM) and “C (Percent Degradation: C ≤ 35)” (1 μM).
For `C=CC(=O)N1CCN(c2nc(O[C@H](C)CN3CCC(OCCOCCOCCOc4cc(-c5scnc5C)ccc4CNC(=O)[C@@H]4C[C@@H](O)CN4C(=O)[C@H](c4cc(C)no4)C(C)C)CC3)nc3c2CCN(c2cc(O)cc4ccccc24)C3)CC1` [compound 441, (2S,4R)-N-(2-(2-(2-(2-((1-((R)-2-((4-(4-acryloylpiperazin-1-yl)-7-(3-hydroxynaphthalen-1-yl)-5,6,7,8-tetrahydropyrido[3,4-d]pyrimidin-2-yl)oxy)propyl)piperidin-4-yl)oxy)ethoxy)ethoxy)ethoxy)-4-(4-methylthiazol-5-yl)benzyl)-4-hydroxy-1-((S)-3-methyl-2-(3-methylisoxazol-5-yl)butanoyl)pyrrolidine-2-carboxamide], the “Percent Degradation” value is reported as “C (Percent Degradation: C ≤ 35)” (0.1 μM), “C (Percent Degradation: C ≤ 35)” (0.3 μM) and “C (Percent Degradation: C ≤ 35)” (1 μM).
For `C=CC(=O)N1CCN(c2nc(O[C@H](C)CN3CCC(OCCOCCOCCOCCOc4cc(-c5scnc5C)ccc4CNC(=O)[C@@H]4C[C@@H](O)CN4C(=O)[C@@H](c4cc(C)no4)C(C)C)CC3)nc3c2CCN(c2cc(O)cc4ccccc24)C3)CC1` [compound 442], the “Percent Degradation” value reads like this: (0.1 μM) “C (Percent Degradation: C ≤ 35)”; (0.3 μM) “C (Percent Degradation: C ≤ 35)”; (1 μM) “C (Percent Degradation: C ≤ 35)”.
Regarding `C=CC(=O)N1CCN(c2nc(O[C@H](C)CN3CCC(OCCOCCOCCOCCOc4cc(-c5scnc5C)ccc4CNC(=O)[C@@H]4C[C@@H](O)CN4C(=O)[C@H](c4cc(C)no4)C(C)C)CC3)nc3c2CCN(c2cc(O)cc4ccccc24)C3)CC1` [compound 443, (2S,4R)-N-(2-(2-(2-(2-(2-((1-((R)-2-((4-(4-acryloylpiperazin-1-yl)-7-(3-hydroxynaphthalen-1-yl)-5,6,7,8-tetrahydropyrido[3,4-d]dipyrimidin-2-yl)oxy)propyl)piperidin-4-yl)oxy)ethoxy)ethoxy)ethoxy)ethoxy)-4-(4-methylthiazol-5-yl)benzyl)-4-hydroxy-1-((S)-3-methyl-2-(3-methylisoxazol-5-yl)butanoyl)pyrrolidine-2-carboxamide], the “Percent Degradation” value reads like this: (0.1 μM) “C (Percent Degradation: C ≤ 35)”; (0.3 μM) “C (Percent Degradation: C ≤ 35)”; (1 μM) “C (Percent Degradation: C ≤ 35)”.
In the case of `C=CC(=O)N1CCN(c2nc(O[C@H](C)CN3CCC(OCCOCCOCCOCCOCCOc4cc(-c5scnc5C)ccc4CNC(=O)[C@@H]4C[C@@H](O)CN4C(=O)[C@H](c4cc(C)no4)C(C)C)CC3)nc3c2CCN(c2cc(O)cc4ccccc24)C3)CC1` [compound 444], the “Percent Degradation” value was “C (Percent Degradation: C ≤ 35)” (0.1 μM), “C (Percent Degradation: C ≤ 35)” (0.3 μM) and “C (Percent Degradation: C ≤ 35)” (1 μM).

For the origin of these results see patent US12552783B2, “Modulators of proteolysis and associated methods of use” (Arvinas Operations, Inc., priority 2018, dated 2026).
